# Results from patent US5126227A, “High contrast photographic elements containing ballasted hydrophobic isothioureas” (priority 1990, dated 1992).
# Assay: Solubility stated in words
# Type: physicochemical
row,Structure (SMILES),solubility (in words)
1,N=C(N)SCCS(=O)(=O)O [Comparative test E],highly soluble
2,N=C(N)SCCCS(=O)(=O)O [Comparative test F],less soluble
3,N=C(N)SCCCCS(=O)(=O)O [Comparative test G],less soluble
4,CC(CCSC(=N)N)S(=O)(=O)O (stereo not shown) [Comparative test H],less soluble
